According to patent US11591341B2 (ALIGOS THERAPEUTICS, INC., priority 2019, dated 2023):

Tested on: HBV
Experiment: HBV-DNA Antiviral Assay Using HepG2.2.15 Cells (extracellular HBV DNA by qPCR)
Assay type: cell-based
Settings: Hepatitis B virus, 168 h; HBV DNA inhibition, HepG2.2.15 cells, extracellular HBV DNA by qPCR on day 7; read-out: EC50
Protocol: The following assay procedure describes the HBV antiviral assay. This assay uses HepG2.2.15 cells, which have been transfected with HBV genome, and extracellular HBV DNA quantification as endpoint. Cell viability is assessed in parallel by measuring the intracellular ATP content using the CellTiter-Glo© reagent from Promega.
On day 0, HepG2.2.15 cells were seeded in 96-well plates at a density of 6.0×10^4 cells/well (0.1 mL/well). The cells were incubated at 37° C. and 5% CO2.
On day 1, the test articles were diluted and added to cell culture wells (8 concentrations, 4-fold dilution, in duplicate). GLS4, Tenofovir and Sorafenib were used as reference compounds. 100 μL of culture medium containing the compounds was added to the plate, and the final total volume per well was 200 μL. The final concentration of DMSO in the culture medium was 0.5%. The plate map of compound treatment is shown below. The cells were cultured at 37° C. and 5% CO2 for 3 days.
On day 4, the plates were refreshed with culture media with compounds.
On day 7, cell viability was assessed using the CellTiter-Glo, and the cell culture supernatants were collected for determination of HBV DNA by qPCR.
Extracellular DNA was isolated with QIAamp 96 DNA Blood Kit per the manufacturer's manual. HBV DNA was then quantified by qPCR with HBV specific primers and probes as specified in Table 1 using the FastStart Universal MasterMix from Roche on an ABI-7900HT. The PCR cycle program consisted of 95° C. for 10 min, followed by 40 cycles at 95° C. for 15 sec and 60° C. for 1 min.
A DNA standard was prepared by dilution of the pAAV2 HBV1.3 plasmid with concentrations ranging from 10 to 1×10^7 copies/μL and used to generate a standard curve by plotting Ct value vs. the concentration of the HBV plasmid DNA standard. The quantity of HBV DNA in each sample was determined by interpolating from the standard curve.
Cell viability was calculated as follows: % Cell viability=(luminescence value of test sample−average luminescence value of blank)/(average luminescence value of 0.5% DMSO control−average luminescence of blank)×100%. HBV DNA inhibition was calculated as follows: 100-(HBV DNA copy number of test sample−HBV DNA copy number of ETV)/HBV DNA copy number of 0.5% DMSO control−HBV DNA copy number of ETV)×100%. The CC50, EC50 and EC90 values were determined by dose-response curves fitted by GraphPad Prism using “log (agonist) vs. response—Variable slope”.

| SMILES | EC50 [µM] |
| --- | --- |
| O=C1NCCCn2c1c1n(c2=O)CCN(C(=O)c2ccc(Br)c(F)c2)C1 [Example 6, 2-(4-bromo-3-fluorobenzoyl)-1,2,3,4,8,9,10,11-octahydro-6H,12H-pyrazino[1′,2′:3,4]imidazo[1,5-a][1,4]diazepine-6,12-dione] | > 5 |
| O=C1NCCCn2c1c1n(c2=O)CCN(C(=O)c2ccc(Br)c(Cl)c2)C1 [Example 7, 2-(4-bromo-3-chlorobenzoyl)-1,2,3,4,8,9,10,11-octahydro-6H,12H-pyrazino[1′,2′:3,4]imidazo[1,5-a][1,4]diazepine-6,12-dione] | > 5 |
| CN1CCCn2c(c3n(c2=O)CCN(C(=O)c2ccc(Br)c(Cl)c2)C3)C1=O [Example 8, 2-(4-bromo-3-chlorobenzoyl)-11-methyl-1,2,3,4,8,9,10,11-octahydro-6H,12H-pyrazino[1′,2′:3,4]imidazo[1,5-a][1,4]diazepine-6,12-dione] | > 5 |
| COc1ccc(CN2CCCn3c(c4n(c3=O)CCN(C(=O)c3ccc(Br)c(Cl)c3)C4)C2=O)cc1 [Example 9, 2-(4-bromo-3-chlorobenzoyl)-11-(4-methoxybenzyl)-1,2,3,4,8,9,10,11-octahydro-6H,12H-pyrazino[1′,2′:3,4]imidazo[1,5-a][1,4]diazepine-6,12-dione] | 0.1 to 0.5 |
| CC(C)NC(=O)c1c2n(c(=O)n1-c1ccccc1)CCN(C(=O)Nc1ccc(F)c(Cl)c1)C2 [Example 10, N^7-(3-chloro-4-fluorophenyl)-3-oxo-2-phenyl-N1-(propan-2-yl)-2H,3H,5H,6H,7H,8H-imidazo[1,5-a]pyrazine-1,7-dicarboxamide] | 0.5 to 5 |
| COc1ccc(CNC(=O)c2c3n(c(=O)n2-c2ccccc2)CCN(C(=O)Nc2ccc(F)c(Cl)c2)C3)cc1 [Example 11, N^7-(3-chloro-4-fluorophenyl)-N1-[(4-methoxyphenyl)methyl]-3-oxo-2-phenyl-2H,3H,5H,6H,7H,8H-imidazo[1,5-a]pyrazine-1,7-dicarboxamide] | 0.1 to 0.5 |
| CC(C)NC(=O)c1c2n(c(=O)n1-c1ccccc1)CCN(C(=O)c1ccc(Br)c(Cl)c1)C2 [Example 12, 7-(4-bromo-3-chlorobenzoyl)-3-oxo-2-phenyl-N-(propan-2-yl)-2H,3H,5H,6H,7H,8H-imidazo[1,5-a]pyrazine-1-carboxamide] | > 5 |
| COc1ccc(CNC(=O)c2c3n(c(=O)n2-c2ccccc2)CCN(C(=O)c2ccc(Br)c(Cl)c2)C3)cc1 [Example 13, 7-(4-bromo-3-chlorobenzoyl)-N-[(4-methoxyphenyl)methyl]-3-oxo-2-phenyl-2H,3H,5H,6H,7H,8H-imidazo[1,5-a]pyrazine-1-carboxamide] | 0.5 to 5 |
| COc1ccc(CNC(=O)c2c3n(c(=O)n2Cc2ccccc2)CCN(C(=O)c2ccc(Br)c(Cl)c2)C3)cc1 [Example 14, 2-benzyl-7-(4-bromo-3-chlorobenzoyl)-N-[(4-methoxyphenyl)methyl]-3-oxo-2H,3H,5H,6H,7H,8H-imidazo[1,5-a]pyrazine-1-carboxamide] | > 5 |
| O=C(Nc1ccc(F)c(Cl)c1)N1CCn2c(c3n(c2=O)CCN(Cc2ccccc2)C3=O)C1 [Example 16, 12-benzyl-N-(3-chloro-4-fluoro-phenyl)-8,13-dioxo-4,7,9,12-tetrazatricyclo[7.4.0.0^2,7]tridec-1-ene-4-carboxamide] | 0.5 to 5 |
| COc1ccc(CN2CCn3c(c4n(c3=O)CCN(C(=O)Nc3ccc(F)c(Cl)c3)C4)C2=O)cc1 [Example 17, N-(3-chloro-4-fluoro-phenyl)-12-[(4-methoxyphenyl)methyl]-8,13-dioxo-4,7,9,12-tetrazatricyclo[7.4.0.0^2,7]tridec-1-ene-4-carboxamide] | > 5 |
| COc1ccc(CN2CCn3c(c4n(c3=O)CCN(C(=O)c3ccc(Br)c(F)c3)C4)C2=O)cc1 [Example 18, 12-(4-bromo-3-fluoro-benzoyl)-4-[(4-methoxyphenyl)methyl]-4,7,9,12-tetrazatricyclo[7.4.0.0^2,7]tridec-1-ene-3,8-dione] | > 5 |
| COc1ccc(CN2CCn3c(c4n(c3=O)CCN(C(=O)c3ccc(Br)c(Cl)c3)C4)C2=O)cc1 [Example 19, 12-(4-bromo-3-chloro-benzoyl)-4-[(4-methoxyphenyl)methyl]-4,7,9,12-tetrazatricyclo[7.4.0.0^2,7]tridec-1-ene-3,8-dione] | > 5 |
| COc1ccc(CN2CCn3c(c4n(c3=O)CCN(C(=O)c3ccc(Br)cc3)C4)C2=O)cc1 [Example 20, 12-(4-bromobenzoyl)-4-[(4-methoxyphenyl)methyl]-4,7,9,12-tetrazatricyclo[7.4.0.0^2,7]tridec-1-ene-3,8-dione] | > 5 |
| O=C(NCc1ccccc1-c1nccnn1)c1c2n(c(=O)n1-c1ccc(OC3CC3)cc1)CCN(C(=O)c1ccc(Br)c(Cl)c1)C2 [Example 463, 7-(4-bromo-3-chloro-benzoyl)-2-[4-(cyclopropoxy)phenyl]-3-oxo-N-[[2-(1,2,4-triazin-3-yl)phenyl]methyl]-6,8-dihydro-5H-imidazo[1,5-a]pyrazine-1-carboxamide] | 0.1 to 0.5 |
| Cc1cccnc1-c1ccccc1CNC(=O)c1c2n(c(=O)n1-c1ccc(OC3CC3)cc1)CCN(C(=O)c1ccc(Br)c(Cl)c1)C2 [Example 464, 7-(4-bromo-3-chloro-benzoyl)-2-[4-(cyclopropoxy)phenyl]-N-[[2-(3-methyl-2-pyridyl)phenyl]methyl]-3-oxo-6,8-dihydro-5H-imidazo[1,5-a]pyrazine-1-carboxamide] | 0.5 to 5 |
| O=C(NCc1ccccc1-c1ncccc1F)c1c2n(c(=O)n1-c1ccc(OC3CC3)cc1)CCN(C(=O)c1ccc(Br)c(Cl)c1)C2 [Example 465, 7-(4-bromo-3-chloro-benzoyl)-2-[4-(cyclopropoxy)phenyl]-N-[[2-(3-fluoro-2-pyridyl)phenyl)methyl]-3-oxo-6,8-dihydro-5H-imidazo[1,5-a]pyrazine-1-carboxamide] | 0.1 to 0.5 |
